In ChEMBL document CHEMBL4680261, “DDX3X inhibitors, an effective way to overcome HIV-1 resistance targeting host proteins” (Eur J Med Chem, 2020):
pIC50: −log10 of the molar value.

Key:
[1] = biological target: ATP-dependent RNA helicase DDX3X (Homo sapiens, UniProt O00571); test: Inhibition of human DDX3X using dsRNA as substrate measured every 30 sec for 40 mins by FRET assay; conditions: for pIC50: read-out: IC50
[2] = test system: Human immunodeficiency virus 1; test: Antiviral activity against HIV-1 NL4-3 infected in human TZM-bl cells infected with supernatants from virus-infected human H9 cells treated with compound for 72 hrs assessed as reduction in luciferase expression measured after 48 hrs by luciferase reporter gene assay based BiCycle assay; format: functional, organism-based; conditions: Human immunodeficiency virus 1, NL4-3
[3] = test system: Human immunodeficiency virus 1; test: Antiviral activity against HIV-1 11808 harboring protease V32I/I54V/I84V/L90M mutant infected in human TZM-bl cells infected with supernatants from virus-infected human H9 cells treated with compound for 72 hrs assessed as reduction in luciferase expression measured after 48 hrs by luciferase reporter gene assay based BiCycle assay; format: functional, organism-based; conditions: Human immunodeficiency virus 1, 11808
[4] = test system: Human immunodeficiency virus 1; test: Antiviral activity against HIV-1 7400 harboring nucleos(t)ide reverse transcriptase M41L/E44D/D67N/T69D/M184VL210W/T215Y mutant infected in human TZM-bl cells infected with supernatants from virus-infected human H9 cells treated with compound for 72 hrs assessed as reduction in luciferase expression measured after 48 hrs by luciferase reporter gene assay based BiCycle assay; format: functional, organism-based; conditions: Human immunodeficiency virus 1, 7400
[5] = test system: Human immunodeficiency virus 1; test: Antiviral activity against HIV-1 11847 harboring integrase G140S/Q148H mutant infected in human TZM-bl cells infected with supernatants from virus-infected human H9 cells treated with compound for 72 hrs assessed as reduction in luciferase expression measured after 48 hrs by luciferase reporter gene assay based BiCycle assay; format: functional, organism-based; conditions: Human immunodeficiency virus 1, 11847
[6] = test system: Human immunodeficiency virus 1; test: Antiviral activity against HIV-1 12231 harboring non-nucleoside reverse transcriptase K103N/V179F/Y181C mutant infected in human TZM-bl cells infected with supernatants from virus-infected human H9 cells treated with compound for 72 hrs assessed as reduction in luciferase expression measured after 48 hrs by luciferase reporter gene assay based BiCycle assay; format: functional, organism-based; conditions: Human immunodeficiency virus 1, 12231
[7] = Selectivity index, ratio of IC50 for antiviral activity against HIV-1 11808 harboring protease V32I/I54V/I84V/L90M mutant infected in human TZM-bl cells infected with supernatants from virus-infected human H9 cells to IC50 for antiviral activity against HIV-1 […] infected in human TZM-bl cells infected with supernatants from virus-infected human H9 cells; format: functional, Human immunodeficiency virus 1
[8] = Selectivity index, ratio of IC50 for antiviral activity against HIV-1 7400 harboring nucleos(t)ide reverse transcriptase M41L/E44D/D67N/T69D/M184VL210W/T215Y mutant infected in human TZM-bl cells infected with supernatants from virus-infected human H9 cells to IC50 for antiviral activity against HIV-1 […] infected in human TZM-bl cells infected with supernatants from virus-infected human H9 cells; format: functional, Human immunodeficiency virus 1
[9] = Selectivity index, ratio of IC50 for antiviral activity against HIV-1 11847 harboring integrase G140S/Q148H mutant infected in human TZM-bl cells infected with supernatants from virus-infected human H9 cells to IC50 for antiviral activity against HIV-1 […] infected in human TZM-bl cells infected with supernatants from virus-infected human H9 cells; format: functional, Human immunodeficiency virus 1
[10] = Selectivity index, ratio of IC50 for antiviral activity against HIV-1 12231 harboring non-nucleoside reverse transcriptase K103N/V179F/Y181C mutant infected in human TZM-bl cells infected with supernatants from virus-infected human H9 cells to IC50 for antiviral activity against HIV-1 […] infected in human TZM-bl cells infected with supernatants from virus-infected human H9 cells; format: functional, Human immunodeficiency virus 1
[11] = Apparent permeability of compound incubated for 5 hrs by PAMPA assay; format: ADME
[12] = Metabolic stability in human liver microsomes assessed as parent compound remaining measured after 60 mins by LC-UV-MS analysis; format: ADME, Microsome; conditions: read-out: Stabilty
[13] = Half life in BALB/c mouse at 8 mg/kg, iv measured upto 24 hrs by HPLC-MS analysis; format: ADME, organism-based; conditions: in vivo
[14] = Cmax in BALB/c mouse at 8 mg/kg, iv measured upto 24 hrs by HPLC-MS analysis; format: ADME, organism-based; design: route intravenous, dose 8 mg/kg, time <=24; conditions: in vivo
[15] = AUC (0 to t) in BALB/c mouse at 8 mg/kg, iv measured upto 24 hrs by HPLC-MS analysis; format: ADME, organism-based; design: route intravenous, dose 8 mg/kg, time <=24; conditions: in vivo
[16] = Observed AUC (0 to infinity) in BALB/c mouse at 8 mg/kg, iv measured upto 24 hrs by HPLC-MS analysis; format: ADME, organism-based; design: route intravenous, dose 8 mg/kg, time <=24; conditions: in vivo
[17] = Observed volume of distribution at steady state in BALB/c mouse at 8 mg/kg, iv measured upto 24 hrs by HPLC-MS analysis; format: ADME, organism-based; conditions: in vivo, read-out: Vdss
[18] = Observed clearance in BALB/c mouse at 8 mg/kg, iv measured upto 24 hrs by HPLC-MS analysis; format: ADME, organism-based; conditions: in vivo
[19] = Half life in BALB/c mouse at 16 mg/kg, iv measured upto 24 hrs by HPLC-MS analysis; format: ADME, organism-based; conditions: in vivo
[20] = Cmax in BALB/c mouse at 16 mg/kg, iv measured upto 24 hrs by HPLC-MS analysis; format: ADME, organism-based; design: route intravenous, dose 16 mg/kg, time <=24; conditions: in vivo
[21] = AUC (0 to t) in BALB/c mouse at 16 mg/kg, iv measured upto 24 hrs by HPLC-MS analysis; format: ADME, organism-based; design: route intravenous, dose 16 mg/kg, time <=24; conditions: in vivo
[22] = Observed AUC (0 to infinity) in BALB/c mouse at 16 mg/kg, iv measured upto 24 hrs by HPLC-MS analysis; format: ADME, organism-based; design: route intravenous, dose 16 mg/kg, time <=24; conditions: in vivo
[23] = Observed volume of distribution at steady state in BALB/c mouse at 16 mg/kg, iv measured upto 24 hrs by HPLC-MS analysis; format: ADME, organism-based; conditions: in vivo, read-out: Vdss
[24] = Observed clearance in BALB/c mouse at 16 mg/kg, iv measured upto 24 hrs by HPLC-MS analysis; format: ADME, organism-based; conditions: in vivo
[25] = Half life in BALB/c mouse at 32 mg/kg, iv measured upto 24 hrs by HPLC-MS analysis; format: ADME, organism-based; conditions: in vivo
[26] = Cmax in BALB/c mouse at 32 mg/kg, iv measured upto 24 hrs by HPLC-MS analysis; format: ADME, organism-based; design: route intravenous, dose 32 mg/kg, time <=24; conditions: in vivo
[27] = AUC (0 to t) in BALB/c mouse at 32 mg/kg, iv measured upto 24 hrs by HPLC-MS analysis; format: ADME, organism-based; design: route intravenous, dose 32 mg/kg, time <=24; conditions: in vivo
[28] = Observed AUC (0 to infinity) in BALB/c mouse at 32 mg/kg, iv measured upto 24 hrs by HPLC-MS analysis; format: ADME, organism-based; design: route intravenous, dose 32 mg/kg, time <=24; conditions: in vivo
[29] = Tmax in BALB/c mouse at 16 to 32 mg/kg, iv measured upto 24 hrs; format: ADME, organism-based; conditions: in vivo, dose 16-32 mg/kg
[30] = Drug excretion in BALB/c mouse at 16 to 32 mg/kg, iv measured upto 24 hrs; format: ADME, organism-based; conditions: in vivo, dose 16-32 mg/kg, read-out: Drug excretion
[31] = Drug uptake in BALB/c mouse brain at 16 to 32 mg/kg, iv measured upto 24 hrs; format: ADME, organism-based; conditions: in vivo, dose 16-32 mg/kg
[32] = Drug uptake in BALB/c mouse spleen at 16 to 32 mg/kg, iv measured upto 24 hrs; format: ADME, organism-based; conditions: in vivo, dose 16-32 mg/kg
[33] = Plasma concentration in BALB/c mouse at 16 to 32 mg/kg, iv measured after 240 mins; format: ADME, organism-based; conditions: dose 16-32 mg/kg
[34] = Plasma concentration in BALB/c mouse at 16 to 32 mg/kg, iv measured after 24 hrs; format: ADME, organism-based; conditions: dose 16-32 mg/kg
[35] = Toxicity in BALB/c mouse assessed as reduction in body weight at 32 mg/kg, iv administered three times a week for 3 weeks; format: organism-based; conditions: in vivo, 504 h
[36] = Toxicity in BALB/c mouse assessed as organism death at 32 mg/kg, iv administered three times a week for 3 weeks; format: organism-based; conditions: in vivo, 504 h
[37] = Toxicity in BALB/c mouse assessed as effect on liver at 32 mg/kg, iv administered three times a week for 3 weeks by hematoxylin and eosin staining based microscopic imaging analysis; format: organism-based; conditions: in vivo, 504 h
[38] = Toxicity in BALB/c mouse assessed as effect on kidney at 32 mg/kg, iv administered three times a week for 3 weeks by hematoxylin and eosin staining based microscopic imaging analysis; format: organism-based; conditions: in vivo, 504 h
[39] = Toxicity in BALB/c mouse assessed as effect on brain at 32 mg/kg, iv administered three times a week for 3 weeks by hematoxylin and eosin staining based microscopic imaging analysis; format: organism-based; conditions: in vivo, 504 h

ATP-dependent RNA helicase DDX3X, sequence (O00571 whole entry): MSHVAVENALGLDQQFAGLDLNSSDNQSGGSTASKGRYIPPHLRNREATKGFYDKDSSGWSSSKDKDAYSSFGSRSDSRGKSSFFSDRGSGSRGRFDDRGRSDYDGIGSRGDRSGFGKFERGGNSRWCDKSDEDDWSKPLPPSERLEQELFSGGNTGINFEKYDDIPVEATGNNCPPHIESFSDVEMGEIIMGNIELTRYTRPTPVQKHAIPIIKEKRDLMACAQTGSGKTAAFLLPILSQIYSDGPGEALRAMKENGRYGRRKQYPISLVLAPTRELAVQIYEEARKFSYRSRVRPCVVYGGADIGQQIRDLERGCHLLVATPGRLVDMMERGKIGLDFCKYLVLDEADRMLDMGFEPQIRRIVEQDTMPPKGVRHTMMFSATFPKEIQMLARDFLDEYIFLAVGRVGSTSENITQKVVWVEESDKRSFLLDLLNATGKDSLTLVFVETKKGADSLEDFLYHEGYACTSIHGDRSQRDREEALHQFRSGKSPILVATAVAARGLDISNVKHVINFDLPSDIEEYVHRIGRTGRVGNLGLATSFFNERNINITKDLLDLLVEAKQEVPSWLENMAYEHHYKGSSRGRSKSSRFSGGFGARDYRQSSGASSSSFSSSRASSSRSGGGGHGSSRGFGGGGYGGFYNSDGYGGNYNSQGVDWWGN

CCCCc1cn(-c2ccc(NC(=O)Nc3cc(CCC(C)=O)ccc3C)cc2)nn1
pIC50 [1]: 5.60

CC(C)CCc1cn(-c2ccc(NC(=O)Nc3cccc4cnccc34)cc2)nn1
pIC50 [2]: 5.68
pIC50 [1]: 6.92
pIC50 [3]: 5.64
pIC50 [4]: 5.74
pIC50 [5]: 5.82
pIC50 [6]: 5.74
Ratio IC50 [7]: 1.1
Ratio IC50 [8]: 0.8
Ratio IC50 [9]: 0.7
Ratio IC50 [10]: 0.8
Papp at 5 h [11]: 0.18 ×10⁻⁶ cm/s
remaining at 1 h [12]: 89.7%
half-life [13]: 8.97 h
Cmax [14]: 5500 ng/mL
AUC(0-t) at 24 h [15]: 25600 ng·h/mL
AUC(0-inf) [16]: 30700 ng·h/mL
Vd [17]: 3.4 L/kg
clearance [18]: 4.3 mL/min/kg
half-life [19]: 7.76 h
Cmax [20]: 15800 ng/mL
AUC(0-t) at 24 h [21]: 23700 ng·h/mL
AUC(0-inf) [22]: 25700 ng·h/mL
Vd [23]: 7 L/kg
clearance [24]: 8 mL/min/kg
t1/2 [25]: 4.682 h
Cmax [26]: 44400 ng/mL
AUC(0-t) at 24 h [27]: 98500 ng·h/mL
AUC [28]: 6114.4 µg·min/mL
Tmax [29]: 1 h
dose excreted at 24 h [30]: 100%
Drug uptake [31]: Not Active
Drug uptake [32]: Active
concentration at 4 h [33]: 10 µM
concentration at 24 h [34]: 2 µM
Activity [35]: Non-Toxic
Activity [36]: Non-Toxic
Activity [37]: Non-Toxic
Activity [38]: Non-Toxic
Activity [39]: Non-Toxic

Cc1ccccc1NC(=O)Nc1ccc(-n2cc(CCO)nn2)cc1
pIC50 [1]: 4.89

COCCc1cn(-c2ccc(NC(=O)Nc3ccccc3C)cc2)nn1
remaining at 1 h [12]: 94.2%

O=C(Nc1ccc(-n2cc(CCO[C@H]3O[C@@H](CO)[C@H](O)[C@@H]3O)nn2)cc1)Nc1ccccc1C(F)(F)F
IC50 [1]: Not Active

CC(C)CC(=O)OCCc1cn(-c2ccc(NC(=O)Nc3ccccc3C(F)(F)F)cc2)nn1
pIC50 [2]: < 4.30
Papp at 5 h [11]: 4.24 ×10⁻⁶ cm/s
remaining at 1 h [12]: 49.3%

O=C(Nc1ccc(-n2cc(CCO)nn2)cc1)Nc1ccccc1C(F)(F)F
pIC50 [2]: < 4.30
pIC50 [1]: 4.95

CCCCc1cn(-c2ccc(NC(=O)Nc3cc(OP(=O)(OCC)OCC)ccc3C)cc2)nn1
pIC50 [2]: 5.26
pIC50 [1]: 6.03
Papp at 5 h [11]: 0.68 ×10⁻⁶ cm/s
remaining at 1 h [12]: 85.2%

CCOCc1cn(-c2ccc(NC(=O)Nc3cc(C(C)C)ccc3C)cc2)nn1
pIC50 [2]: 5.42
pIC50 [1]: 5.82

CCCCc1cn(-c2ccc(NC(=O)Nc3cc(OC4CCOC4)ccc3C)cc2)nn1 (stereo not given)
pIC50 [2]: 5.59
pIC50 [1]: 7.00

CCOC(=O)CCc1cn(-c2ccc(NC(=O)Nc3ccccc3C(F)(F)F)cc2)nn1
pIC50 [2]: < 4.30
pIC50 [1]: 5.69
Papp at 5 h [11]: 1.56 ×10⁻⁶ cm/s
remaining at 1 h [12]: 16.9%
